Source: patent publication US5686458A, “Quinazoline deriviates for treating peptic ulcer” (Yuhan Corporation, priority 1992, dated 1997)

Columns and labels:
[1] = molecular target: T1, H^+ /K^+ ATPase, gastric vesicles (Sus scrofa, UniProt P19156); assay: Reversibility of inhibition, Dilution and Washout method (Experiment 4-3); format: biochemical, pig; details: for Reversibility of the inhibition of the enzyme activity: conclusion from Table 4; for Inhibition of H+/K+ ATPase activity after Dilution and Washout: diluted 50 times; for Inhibition of H+/K+ ATPase activity after Dilution and Washout / Inhibition of H+/K+ ATPase activity before Dilution and Washout: pH 6.4, Example 34 at 6 μM, omeprazole and SK&F96067 at 60 μM
T1 construct: Gastric vesicles were prepared from pig stomach; from tissue; host or cells: pig stomach, lyophilized gastric vesicles
Procedure: The vesicles were lyophilized and kept at -70° C.
To all […] groups, was added 100 μl of lyophilized vesicles prepared in Experiment 4-1 at the concentration of 100 μg protein 1 ml. Then, 5 mM Pipes/Tris buffer(pH 6.4 ) was added to the three groups until the volume of test tubes became 150 μl. After the preincubation for 15 minutes, H^+ /K^+ ATPase activity was measured in accordance with the same procedures as in Experiment 4-2. The concentrations of the test substances as indicated above are the final concentrations.
After the completion of preincubation, each group was diluted 50 times with 5 mM Pipes/Tris buffer(pH 6.4), and then centrifuged for 60 minutes by means of Beckman ultracentrifuge(Model L8-80). The supernatant was discarded and the pellet was suspended with 5 mM Pipes/Tris buffer pH 6.4 until the volume became the same as the preincubation volume.

[2] = tested on: gastric secretion stimulated by histamine; assay: Anti-secretory effects when gastric secretion is stimulated by histamine (Experiment 3-1); format: in vivo, Sprague-Dawley male rats; details: intravenous; for ED50: Rattus norvegicus, read-out: ED50, gastric secretion inhibition
Procedure: In accordance with the method [see Ghosh and Shild, et al., British Journal of pharmacology 13:54-61 (1958)], anti-secretory effects of the test substances were studied in this Experiment. Sprague-Dawley male rats having a body weight of 200±20 g were divided into 3 groups, Group 1 to be administered with the compound of Example 34, Group 2 to be administered with SK&F96067[see Keeling, D. […] The rats of each Group, deprived of food for 24 hours before the experiment with free access to water, were anesthetized by intraperitoneally administering of 1.5 g/kg of 20% aqueous urethane solution and positioned on the test plate which was heated and maintained at 37° C. The anesthetized rats were cannulated at the right jugular vein for the administration of the test compounds and the left jugular vein for the administration of stimulating substances. After an abdominal incision, tubes were inserted into the esophagus and duodenum, each of which was connected with saline in a thermostat and a fraction collector. […] To the left jugular vein, histamine was administered as a gastric secretion stimulator. […] The gastric secretion inhibition (%) of the test compounds was calculated from the following equation: The gastric secretion inhibition (%) of the test compounds =(A-C)/(A-B)×100 . . . (IV) in which […]

[3] = molecular target: T2, H^+ /K^+ ATPase (proton pump), gastric vesicles (Sus scrofa, UniProt P19156); assay: Determination of H+/K+ ATPase activity, Lineweaver-Burk kinetics versus K+ (Experiment 4-2); format: biochemical, pig; details: for Competitive inhibition with K+ at the K+ binding site of proton pump: Lineweaver-Burk plot, KCl 0.1 to 30 mM
T2 construct: Gastric vesicles were prepared from pig stomach; from tissue; host or cells: pig stomach, lyophilized gastric vesicles
Procedure: Gastric vesicles were prepared from pig stomach by the method described in Saccomani G., et al., J. Biol. Chem. 250, 4802-4809 (1975). The vesicles were lyophilized and kept at -70° C. The protein content was determined by the method of Lowry et al., using bovine serum albumin as standard[see Lowry, O. H., Rosebrough, N. J. and Randall, R. J., J. Biol. Chem. 193, 265-275 (1951)].
Test tubes were divided into 4 groups, each having 3 test tubes. As a control group, group 1 was added with the 10 μl of DMSO. Groups 2, 3 and 4 were administered with the compound prepared in example 34 whose final concentration are 0.17 μM, 0.33 μM and 0.67 μM, respectively. Each group was further divided into 3 small groups, in which enzymes were activated by ATP; ATP and Mg^++; and ATP, Mg^++ and K^+, respectively.
To all of the test tubes, were added 100 μl of lyophilized vesicles prepared at the concentration of 25 μg protein/ml and then 90 μl of 5 mM Pipes/Tris buffer pH 7.0. The compound prepared in Example 34 was added to each Group until the final concentration thereof became 0.17, 0.33 or 0.67 μM, respectively, They were preincubated for 15 minutes.
50 μl of ATP(3 mM) was added to each of the four Groups and the 50 μl of MgCl2 (2 mM) was added only to the 2nd and 3rd small groups of all Groups. Further, to the 3rd small groups of all Groups, were added 50 μl of KCl solution of various concentrations(from 0.1 mM to 30 mM) and then 150μl of Pipes/Tris buffer of pH 7.0. To the rest small groups, Pipes/Tris buffer of pH 7.0 was added until the volume became the same as that of the 3rd small group.
The test tube's were incubated at 37° C. for 30 minutes and then the reaction was terminated by adding 25% cold trichloroacetic acid solution. They were centrifuged by means of a microcentrifuge and the supernatant was taken up for the measurement of the released inorganic phosphate content by an automatic analyzer(CIBA CORNING, Express 550).
In accordance with the same procedures as above, except that 15 and 30 μm of omeprazole and 0.75, 1.5 and 3.0 μm of SK&F96067 were used as comparative substances, released inorganic phosphate content was measured.
The released inorganic phosphate contents of the three small groups were considered as the activity of H^+ /K^+ ATPase at each of the concentrations employed. The specific activity of H^+ /K^+ ATPase was calculated from the following equation:
Specific activity=(A-C)-(B-C) . . . (V)
A is the activity of enzyme activated by ATP, Mg^++ and , K^+ ;
B is the activity of enzyme activated by ATP and M^++ and
C is the activity of enzyme activated by ATP.
The specific activity, thus calculated, of Groups 1, 2, 3 and 4 which employed DMSO and the compound of Example 34 at 3 different concentrations were then plotted with respect to the concentration of KCl in FIG. 1 according to the method of Lineweaver-Burk, wherein .box-solid., .quadrature. and .largecircle. represent the respective concentrations of the compound of Example 34 of 0.67 μM, 0.33 μM and 0.17 μM; and .oval-solid. represents concentration of the DMSO compound. FIG. 2 depicts the Lineweaver-Burk plot of the specific activities obtained from SK&F96067, wherein .box-solid., .quadrature. and .largecircle. represent its respective concentrations of 3.0 μM, 1.5 μM, 0.75 μM; and .oval-solid. represents concentration of the DMSO compound. FIG. 3 illustrates the Lineweaver-Burk plot of the specific activities obtained from omeprazole, wherein .oval-solid. and .quadrature. represent its concentrations of 15 μM and 30 μM; and .largecircle. represents the concentration of DMSO.

T1 sequence (P19156 2-1034 limits assumed): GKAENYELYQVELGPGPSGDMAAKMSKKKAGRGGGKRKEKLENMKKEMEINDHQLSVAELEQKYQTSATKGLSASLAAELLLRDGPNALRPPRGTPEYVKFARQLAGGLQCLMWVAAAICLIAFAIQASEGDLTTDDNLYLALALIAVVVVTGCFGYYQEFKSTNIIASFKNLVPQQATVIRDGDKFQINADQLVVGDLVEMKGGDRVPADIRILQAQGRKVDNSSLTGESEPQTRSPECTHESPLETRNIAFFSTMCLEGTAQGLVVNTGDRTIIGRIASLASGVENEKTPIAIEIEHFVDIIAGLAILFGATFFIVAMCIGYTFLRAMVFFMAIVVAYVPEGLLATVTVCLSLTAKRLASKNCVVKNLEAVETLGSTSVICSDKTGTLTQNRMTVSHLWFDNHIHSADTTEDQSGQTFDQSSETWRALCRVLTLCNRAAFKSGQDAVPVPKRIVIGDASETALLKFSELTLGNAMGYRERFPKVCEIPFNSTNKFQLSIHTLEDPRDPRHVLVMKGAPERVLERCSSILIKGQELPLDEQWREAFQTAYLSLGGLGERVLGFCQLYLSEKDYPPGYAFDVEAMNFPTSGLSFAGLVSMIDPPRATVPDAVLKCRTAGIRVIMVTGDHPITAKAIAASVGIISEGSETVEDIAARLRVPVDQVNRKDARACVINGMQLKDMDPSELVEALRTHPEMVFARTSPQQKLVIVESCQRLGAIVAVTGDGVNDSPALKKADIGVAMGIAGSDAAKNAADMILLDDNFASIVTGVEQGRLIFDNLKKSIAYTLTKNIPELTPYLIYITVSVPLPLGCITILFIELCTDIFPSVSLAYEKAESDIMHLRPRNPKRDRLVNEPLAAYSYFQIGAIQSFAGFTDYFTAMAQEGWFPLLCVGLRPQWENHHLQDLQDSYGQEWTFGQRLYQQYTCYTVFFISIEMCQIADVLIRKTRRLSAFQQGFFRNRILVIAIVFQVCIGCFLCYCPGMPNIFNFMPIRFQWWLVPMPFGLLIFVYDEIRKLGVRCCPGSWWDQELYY
T1 sequence (P18434 whole entry partner): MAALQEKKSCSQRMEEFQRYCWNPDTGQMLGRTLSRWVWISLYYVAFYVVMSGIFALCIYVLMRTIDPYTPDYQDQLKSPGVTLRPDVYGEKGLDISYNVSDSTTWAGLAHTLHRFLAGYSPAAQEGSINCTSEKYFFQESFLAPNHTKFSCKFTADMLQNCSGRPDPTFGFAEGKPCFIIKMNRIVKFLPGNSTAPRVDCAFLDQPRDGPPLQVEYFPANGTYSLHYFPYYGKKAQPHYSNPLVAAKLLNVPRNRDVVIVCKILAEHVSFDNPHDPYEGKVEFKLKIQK
T2 sequence (P19156 2-1034 limits assumed): as the sequence (P19156 2-1034 limits assumed) above
T2 sequence (P18434 whole entry partner): as the sequence (P18434 whole entry partner) above

SMILES	Reversibility of the inhibition of the enzyme activity [1]	Inhibition of H+/K+ ATPase activity after Dilution and Washout [1]	Inhibition of H+/K+ ATPase activity before Dilution and Washout [1]	The gastric secretion inhibition (%) ([2]; 0.5 mg/kg)	The gastric secretion inhibition (%) ([2]; 1.0 mg/kg)	The gastric secretion inhibition (%) ([2]; 3.0 mg/kg)	ED50 [2]	Competitive inhibition with K+ at the K+ binding site of proton pump [3]	Ki ([3]; Lineweaver-Burk, versus K+, pH 7.0)	The gastric secretion inhibition (%) ([2]; 0.1 mg/kg)	The gastric secretion inhibition (%) ([2]; 0.3 mg/kg)	Inhibition overcome by increasing the concentration of KCl ([3]; 15 and 30 μM)	Reaction speed in comparison with the control values ([3]; 15 and 30 μM)
COc1cccc2c(N3CCc4ccccc4C3C)nc(Nc3ccc(F)cc3C)nc12.Cl (stereo not shown) [Example 34, 8-Methoxy-2-(4-Fluoro-2-Methyl-Phenylamino)-4-(1-Methyl-1,2,3,4-Tetrahydroisoquinoline-2-Yl)Quinazoline Hydrochloride]	reversible	16%	84%	44.4%	52.0%	76.5%	0.9 mg/kg	inhibited competitively with K^+	0.04 µM	–	–	–	–
COc1ccc2[nH]c([S+]([O-])Cc3ncc(C)c(OC)c3C)nc2c1 (stereo not shown) [Omeprazole, omeprazole, reference compound]	irreversible	67%	80%	–	102.3%	–	0.29 mg/kg	did not inhibit competitively	–	8.0%	49.4%	not overcome by increasing the concentration of KCl	greatly reduced
